Like-named read-outs stand apart in the source and are kept apart here.
What was measured:
RORγ [1] = target: T1, RORγ (Mus musculus, UniProt P51450); experiment: cell-based; assay type: cell-based; conditions: for activation at 1 µM: read-out: % increase in RORγ activity (mean ± SD), individual agonist at 1 μM; for RORγ agonistic activity (in words): screening at 10 μM; for fold induction at 10 µM: read-out: RORγ-dependent transactivation compared to the DMSO vehicle control; for activation at 2.5 µM: read-out: % increase in RORγ activity (mean ± SD), individual agonist at 2.5 μM
T1 sequence (P51450 1-516): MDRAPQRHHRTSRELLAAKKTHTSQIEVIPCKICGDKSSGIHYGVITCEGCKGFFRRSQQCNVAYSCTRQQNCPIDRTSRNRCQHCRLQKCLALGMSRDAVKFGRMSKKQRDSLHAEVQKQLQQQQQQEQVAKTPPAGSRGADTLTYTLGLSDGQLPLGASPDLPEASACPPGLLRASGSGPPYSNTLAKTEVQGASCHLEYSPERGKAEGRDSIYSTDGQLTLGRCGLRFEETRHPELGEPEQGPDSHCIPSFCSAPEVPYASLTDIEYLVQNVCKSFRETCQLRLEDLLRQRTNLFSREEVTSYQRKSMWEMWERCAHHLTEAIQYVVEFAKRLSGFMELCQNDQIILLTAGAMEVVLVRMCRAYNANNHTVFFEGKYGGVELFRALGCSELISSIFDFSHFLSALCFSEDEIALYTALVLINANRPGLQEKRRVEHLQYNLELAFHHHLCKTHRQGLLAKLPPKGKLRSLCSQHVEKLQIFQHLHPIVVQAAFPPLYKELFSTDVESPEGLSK
Experimental: Both cell lines were cultured under standard conditions (37 °C, 5% CO2).

[2] = tested on: IL-22 mRNA in EL4 T-cells over expressing human RORγt; experiment: IL-22 mRNA expression (qRT-PCR) in EL4 cells overexpressing human RORγt; assay type: cell-based, murine; conditions: 5 h, PMA/ionomycin-stimulated
Experimental: (§1) EL4 cells were transfected with plasmid encoding the human variant of RORγt by electroporation and seeded into 12-well plates (500,000 cells and 1.6 μg plasmid in 2 mL cultivation medium per well). Transfection was performed using the NeonTM transfection system (Invitrogen, Carlsbad, CA, USA) as follows: 1.8 × 10^6 cells and 6 μg plasmid in 100 μL buffer R were exposed to one pulse (1080 V, 50 ms) utilizing a 100 μL gold tip. After incubation for 16 h, the cells were treated for 5 h with the indicated test compounds as well as PMA and ionomycin at a total concentration of 0.253 nM and 31.3 nM, respectively. Subsequently, cells were centrifuged at 200 g for 3 min and total RNA was isolated from the pellet with the RNeasy Mini Kit according to the manufacturer’s protocol (Qiagen, Venlo, Netherlands). Contamination with genomic DNA was prevented by on-column DNA digestion using DNase I (RNase-free, Qiagen). RNA (1 μg) was reverse transcribed to complementary DNA (cDNA) utilizing the Takara PrimeScript RT Reagent Kit, according to the manufacturer’s protocol (Takara Bio Inc., Kusatsu, Japan). Finally, quantitative polymerase chain reaction (qPCR) was performed using Kapa SYBER® Fast qPCR Master Mix (KAPA Biosystems, Wilmington, MA, USA) as described earlier ([Inderbinen et al., 2020]). The following primers were used: peptidylprolyl isomerase A (PPIA): forward 5’-[…]-3’, reverse 5’-[…]-3’; IL-17A: forward 5’-[…] CCAA-3’, reverse 5’-[…]-3’; IL-22: forward 5’-[…]-3’, reverse 5’-[…]-3’. Primer quality was verified by analysis of melting curves and inspection of the PCR product on an agarose gel (single band at the expected size of the amplified sequence). Resulting CT values were normalized to values of the endogenous control gene PPIA and compared to control according to the 2^−ΔΔCT method ([Schmittgen and Livak, 2008]).

[3] = tested on: IL-17A mRNA in EL4 T-cells over expressing human RORγt; experiment: IL-17A mRNA expression (qRT-PCR) in EL4 cells overexpressing human RORγt; assay type: cell-based, murine; conditions: 5 h, PMA/ionomycin-stimulated
Experimental: as §1

RORγ [4] = target: T1, RORγ; conditions: in presence of 1.25 μM SR2211, test compound at different concentrations
Experimental: The CHO RORγ Tet-on cell line used in this study is a well-established reporter gene system to assess RORγ agonists and antagonists. […] CHO RORγ Tet-on cells were seeded in 96-well plates at a density of 2000 cells/100 μL culture medium, followed by incubation overnight. Subsequently, the medium was renewed, and the respective test compound dissolved in dimethylsulfoxide (DMSO) was added to the wells using a HP D300 Digital Liquid Dispenser with T8 dispense heads (HP Inc., Palo Alto, CA, USA). […] Two hours later, RORγ expression was induced by adding doxycycline at 1 μM final concentration. All samples were adjusted to contain the same volume and concentration of DMSO. After 16 h of incubation, cells were washed with PBS, lysed with 20 μL Tropix lysis solution (Applied Biosystems, Foster City, CA, USA) containing 1 mM dithiothreitol and frozen at − 80 °C for at least 20 min. […] Measured values were normalized to values from control cells treated with DMSO vehicle control only and induced with doxycycline.
Cells were simultaneously exposed to SR2211 and a given test compound at different concentrations or vehicle control.

estrogenic activity = conditions: cited from earlier work
[5] = parameters: method as in Benson et al., 2005; Fernandez et al., 2002; conditions: human; ref Benson et al., 2005; Fernandez et al., 2002; cited from earlier work
[6] = cited from earlier work
[7] = parameters: method as in CIR, 2008; conditions: relatively long alkyl side chain; ref CIR, 2008; cited from earlier work
[8] = only at high micromolar concentrations, ref Charles and Darbre, 2009

Row | SMILES | activation at 1 µM (RORγ [1]) [%] | RORγ agonistic activity (in words) (RORγ [1]) | IL-22 transcription ([2]; 10 μM, vs vehicle control) | IL-17A transcription ([3]; 10 μM, vs vehicle control) | Reversal of the SR2211-mediated inhibition of RORγ transactivation (RORγ [4]) | fold induction at 10 µM (RORγ [1]) | further results
1 | O=C(OCc1ccccc1)c1ccccc1 [Benzylbenzoate] | 16 ± 12 | significant agonistic activity | did not significantly enhance | did not significantly enhance | restore the suppressed RORγ activity in a concentration-dependent manner |  | estrogenic activity (estrogenic activity; [8]): Estrogenic activity
2 | O=C(c1ccc(O)cc1)c1ccc(O)cc1 [4,4’-dihydroxybenzophenone] |  | agonistic activity |  |  |  |  | 
3 | COc1ccc(C(=O)c2ccccc2)c(O)c1 [benzophenone-3] |  | agonistic activity |  |  |  |  | concentration in breast milk [5]: 779.9 ng/g milk; concentration in serum [5]: 304 ng/mL; concentration in urine [5]: 300 ng/mL; skin penetration ([6]; human skin, ref Benson et al., 2005, Fernandez et al., 2002): penetrate the human skin efficiently
4 | COc1ccc(C(=O)c2ccc(OC)cc2O)c(O)c1 [Benzophenone-6, benzophenone-6] | -1 ± 5 | agonistic activity |  |  |  | > 1.5 | 
5 | Cc1ccc(Sc2ccc(C(=O)c3ccccc3)cc2)cc1 [4-(4-methylphenylthio)benzophenone] |  | agonistic activity |  |  |  |  | 
6 | Cc1ccc(OC(=O)c2ccccc2)cc1 [4-Methylphenylbenzoate] | 6 ± 9 | significant agonistic activity | did not significantly enhance | did not significantly enhance | failed to do so |  | 
7 | O=C(c1ccc(O)cc1)c1ccc(O)cc1O [2,4,4’-trihydroxybenzophenone] |  | agonistic activity |  |  |  |  | estrogenic activity (estrogenic activity; ref Suzuki et al., 2005): weak estrogenic activity
8 | O=C(c1ccccc1)c1ccc(O)cc1O [benzophenone-1] |  |  |  |  |  |  | RORγ agonistic effect (in words, discussion) (RORγ [1]; micromolar concentrations): only weak RORγ agonistic effect
9 | COc1ccc(C(=O)c2ccc(C)cc2)c(O)c1 [Benzophenone-10, benzophenone-10] | 15 ± 5 | agonistic activity | tended to increase | elevated expression | significant increase |  | RORγ-dependent transactivation compared to the DMSO vehicle control (RORγ [1]; first screening, 10 μM): more than 1.5 fold; activation at 2.5 µM (RORγ [1]): 63 ± 4%
10 | O=C(OCc1ccccc1)c1ccc(O)cc1 [Benzylparaben, benzylparaben] | 13 ± 4 |  | tended to increase | a trend was detected | significant increase | > 1.5 | activation at 2.5 µM (RORγ [1]): 45 ± 2%
11 | CCCCCCOC(=O)c1ccc(O)cc1 [Hexylparaben, hexylparaben] |  |  | significantly increased transcription | elevated expression | significant increase | > 1.5 | activation at 2.5 µM (RORγ [1]): 83 ± 8%; solubility [7]: reduced solubility
12 | CCCCCCCOC(=O)c1ccc(O)cc1 [Heptylparaben, heptylparaben] | 5 ± 5 |  |  |  |  | > 1.5 | 
13 | O=c1c(-c2ccc(O)cc2)coc2cc(O)cc(O)c12 [genistein, reference compound] |  |  | significantly increased transcription | efficient modulation |  |  | 
14 | O=C(Oc1ccccc1)c1ccc(O)cc1 [Phenylparaben, phenylparaben] | 5 ± 2 |  |  |  |  | > 1.5 | 
15 | CCCCOC(=O)c1ccc(O)cc1 [Butylparaben, butylparaben] | 5 ± 4 |  |  |  |  | > 1.5 | 
16 | O=C(c1ccc(O)cc1O)c1ccc(O)cc1O [benzophenone-2] |  | agonistic activity |  |  |  |  | 
17 | COc1ccc(C(=O)CC(=O)c2ccc(C(C)(C)C)cc2)cc1 [avobenzone] |  |  |  |  |  |  | skin penetration ([6]; ref Simeoni et al., 2004, Weigmann et al., 2001): limited skin penetration
18 | CCc1ccc(N(CC(C)C)S(=O)(=O)c2ccc(OCC3CCOCC3)c(CO)c2)cc1 [GSK2981278, reference compound] |  |  |  |  |  |  | IL-22 transcription ([2]; 1 μM): efficient modulation; IL-17A transcription ([3]; 1 μM): efficient modulation
19 | O=C(Nc1ccc(C(O)(C(F)(F)F)C(F)(F)F)cc1)c1ccccc1Cl [SR0987, reference compound] |  |  | significantly increased transcription | efficient modulation |  |  | 
20 | O=C(OCc1ccccc1)c1ccccc1O [Benzylsalicylate] | 18 ± 3 | significant agonistic activity | did not significantly enhance | did not significantly enhance | restore the suppressed RORγ activity in a concentration-dependent manner |  | estrogenic activity (estrogenic activity; [8]): Estrogenic activity

Reference: paper PMC11046913, “Activation of retinoic acid-related orphan receptor γ(t) by parabens and benzophenone UV-filters” (Toxicology, 2022)
